Assays:
Details in all cases: 72 h
[1] = tested on: myeloid leukemia patient primary cells Pat.3; assay: area under dose-response curve (viability, 1 nM-10 uM) (fraction (0-1)); higher = more sensitive
Protocol: (§1)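 AUC (0–1, higher = more sensitive) of the 5-point dose–response (1 nM–10 µM, 72 h, CellTiter-Glo) in primary AML/CML patient mononuclear cells. 0.030103 is the floor for inactive compounds.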

[2] = tested on: myeloid leukemia patient primary cells Pat.14; assay: as above
Protocol: as §1

[3] = tested on: myeloid leukemia patient primary cells Pat.5; assay: as above
Protocol: as §1

[4] = tested on: myeloid leukemia patient primary cells Pat.7; assay: as above
Protocol: as §1

[5] = tested on: myeloid leukemia patient primary cells Pat.2; assay: as above
Protocol: as §1

[6] = tested on: myeloid leukemia patient primary cells Pat.9; assay: as above
Protocol: as §1

[7] = tested on: myeloid leukemia patient primary cells Pat.13; assay: as above
Protocol: as §1

[8] = tested on: myeloid leukemia patient primary cells Pat.4; assay: as above
Protocol: as §1

[9] = tested on: myeloid leukemia patient primary cells Pat.10; assay: as above
Protocol: as §1

[10] = tested on: myeloid leukemia patient primary cells Pat.12; assay: as above
Protocol: as §1

[11] = tested on: myeloid leukemia patient primary cells Pat.11; assay: cell viability (% survival relative to DMSO control); higher = less cytotoxic
How it was run: (§2)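 Thawed, Ficoll-purified mononuclear cells from AML or CML patients in RPMI 1640 with 10% FBS were seeded at 10,000 cells/well on 384-well plates pre-printed with 70 compounds at five tenfold concentrations, 1–10,000 nM, in duplicate, for 72 h. Viability was read by CellTiter-Glo and normalised to DMSO and 10 μM proteasome-inhibitor wells. Where given, area under the curve came from four-parameter log-logistic fits (drc, PharmacoGx R packages).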

[12] = tested on: myeloid leukemia patient primary cells Pat.5; assay: as above
How it was run: as §2

[13] = tested on: myeloid leukemia patient primary cells Pat.1; assay: as above
How it was run: as §2

[14] = tested on: myeloid leukemia patient primary cells Pat.2; assay: as above
How it was run: as §2

[15] = tested on: myeloid leukemia patient primary cells Pat.9; assay: as above
How it was run: as §2

[16] = tested on: myeloid leukemia patient primary cells Pat.13; assay: as above
How it was run: as §2

HL-60 [17] = assay: area under dose-response curve (viability, 1 nM-10 uM) (fraction (0-1)); higher = more sensitive
How it was run: (§3)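 Four-parameter log-logistic fits in drc and PharmacoGx supplied area under the curve where it is given. Underlying viability came from CellTiter-Glo, normalised to DMSO and proteasome-inhibitor wells, with the proteasome inhibitor at 10 μM. HL-60 cells in RPMI 1640 plus 10% FBS had been rescreened against the full library at five tenfold concentrations of 1–10,000 nM, in duplicate on 384-well plates, with DMSO or 100 nM of one of three metabolic inhibitors, for 72 h at 37 °C, 5% CO2.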

HL-60 [18] = assay: cell viability (% survival relative to DMSO control); higher = less cytotoxic
How it was run: as §3

[19] = tested on: myeloid leukemia patient primary cells Pat.1; assay: area under dose-response curve (viability, 1 nM-10 uM) (fraction (0-1)); higher = more sensitive
Protocol: as §1

[20] = tested on: myeloid leukemia patient primary cells Pat.6; assay: as above
Protocol: as §1

[21] = tested on: myeloid leukemia patient primary cells Pat.8; assay: as above
Protocol: as §1

[22] = tested on: myeloid leukemia patient primary cells Pat.15; assay: as above
Protocol: as §1

CCC(CC#N)OC(=O)N[C@@H](C)c1cccc(NC(=O)Nc2ccc(-c3cnco3)c(OC)c2)c1 (stereo in doubt) [AVN-944]
Details | area under dose-response curve
[1] | 0.44
[2] | 0.167
[3] | 0.641
[4] | 0.545
[5] | < 0.0301
[6] | 0.438
[7] | 0.162
[8] | 0.162
[9] | 0.508
[10] | < 0.0301

Details | area under dose-response curve, co-treatment: AZD3965 100 nM | area under dose-response curve, co-treatment: DMSO vehicle | area under dose-response curve, co-treatment: GSK2194069 100 nM | area under dose-response curve, co-treatment: pictilisib 100 nM | cell viability, 1 nM [%] | cell viability, 10 nM [%] | cell viability, 100 nM [%] | cell viability, 1000 nM [%] | cell viability, 10000 nM [%]
HL-60 [17] | 0.273 | 0.233 | 0.227 | 0.255 | – | – | – | – | –
[11] | – | – | – | – | > 100 | 99.4 | 90.8 | 86.2 | 60.6
[12] | – | – | – | – | 56.9 | 45.4 | 40.4 | 9.12 | 5.69
[13] | – | – | – | – | 90.9 | 85.7 | 87.2 | 82.4 | 65.8
[14] | – | – | – | – | > 100 | 98.9 | 81.5 | 81.8 | 83.1
[15] | – | – | – | – | 74.9 | 72.1 | 50 | 15.9 | 1.99
[16] | – | – | – | – | 91.5 | 93.1 | 90.6 | 63.4 | 36.5

cell viability [%], HL-60 [18]
Details | 0.001 µM | 0.01 µM | 0.1 µM | 1 µM | 10 µM
co-treatment: AZD3965 100 nM | 96.6 | 102 | 102 | 35.4 | 8.09
co-treatment: DMSO vehicle | 99.36 | 97.01 | 103 | 50 | 12.9
co-treatment: GSK2194069 100 nM | 99.2 | 105 | 100 | 53 | 12.3
co-treatment: pictilisib 100 nM | 102.95 | 98.5 | 93.8 | 48.9 | 9.49

Nc1ccn([C@@H]2O[C@H](CO)[C@@H](O)C2(F)F)c(=O)n1 [Gemcitabine]
Details | area under dose-response curve
[1] | 0.782
[2] | 0.131
[3] | 0.956
[4] | 0.135
[5] | 0.0848
[6] | 0.956
[7] | 0.0519
[8] | 0.155
[9] | 0.257
[10] | < 0.0301
[19] | 0.0673
[20] | < 0.0301
[21] | 0.0474
[22] | 0.0872

Details | area under dose-response curve, co-treatment: AZD3965 100 nM | area under dose-response curve, co-treatment: DMSO vehicle | area under dose-response curve, co-treatment: GSK2194069 100 nM | area under dose-response curve, co-treatment: pictilisib 100 nM | cell viability, 1 nM [%] | cell viability, 10 nM [%] | cell viability, 100 nM [%] | cell viability, 1000 nM [%] | cell viability, 10000 nM [%]
HL-60 [17] | 0.648 | 0.631 | 0.634 | 0.663 | – | – | – | – | –
[11] | – | – | – | – | 95.3 | 91.6 | > 100 | 83.6 | 67.2
[12] | – | – | – | – | 4.78 | 2.01 | 88.3 | 27.6 | 2.39
[13] | – | – | – | – | 83.4 | 92.9 | 99.6 | 76.6 | 54.5
[14] | – | – | – | – | 90.2 | 95.4 | 98.4 | 82.9 | 48.5
[15] | – | – | – | – | 3.95 | 6.11 | 56.7 | 15.4 | 6.78
[16] | – | – | – | – | 89.5 | 84.5 | 90.2 | 86.3 | 36.4

cell viability [%], HL-60 [18]
Details | 0.001 µM | 0.01 µM | 0.1 µM | 1 µM | 10 µM
co-treatment: AZD3965 100 nM | 101 | 82.7 | 5.92 | 4.29 | 3.15
co-treatment: DMSO vehicle | 99.76 | 85.6 | 7.57 | 6.18 | 3.121
co-treatment: GSK2194069 100 nM | 104 | 84.92 | 7.69 | 5.54 | 3.32
co-treatment: pictilisib 100 nM | 97.8 | 74.5 | 6.77 | 5.09 | 2.52

Reference: the supplement of paper PMC8671470
